“And” between values parts separate entries of the source, which are not always exact repeats. Equal entries are not always repeated.
Each molecule was assayed against Tubulin (Bos taurus, UniProt Q6B856+Q862L2+Q862F3) (assay: In vitro inhibitory activity against bovine brain tubulin assembly at a concentration of 3-3.5 mg/ml).
Assay type: functional

Structure (SMILES) | IC50
CCC1=CC2CN(CCc3c([nH]c4ccccc34)[C@@](C(=O)OC)(c3cc4c(cc3OC)N(C)C3C45CCN4CC=CC(CC)(C45)C(OC(C)=O)[C@]3(O)C(=O)OC)C2)[C@@H]1C#Cc1ccccc1 (stereo not given in full) | 21000 nM and 28000 nM
CCC1=CC2CN(CCc3c([nH]c4ccccc34)[C@@](C(=O)OC)(c3cc4c(cc3OC)N(C)C3C45CCN4CC=CC(CC)(C45)C(OC(C)=O)[C@]3(O)C(=O)OC)C2)[C@@H]1c1ccccc1 (stereo not given in full) | 1400 nM and 1600 nM
CCC1CN2CCc3c([nH]c4ccccc34)[C@@](C(=O)OC)(c3cc4c(cc3OC)N(C)C3C45CCN4CC=CC(CC)(C45)C(OC(C)=O)[C@]3(O)C(=O)OC)CC(C2)[C@H]1C(C)(C)C (stereo not given in full) | 400 nM
CCC1CN2CCc3c([nH]c4ccccc34)[C@@](C(=O)OC)(c3cc4c(cc3OC)N(C)C3C45CCN4CC=CC(CC)(C45)C(OC(C)=O)[C@]3(O)C(=O)OC)CC(C2)[C@H]1CC (stereo not given in full) | 1300 nM and 1400 nM
CCC1CN2CCc3c([nH]c4ccccc34)[C@@](C(=O)OC)(c3cc4c(cc3OC)N(C)C3C45CCN4CC=CC(CC)(C45)C(OC(C)=O)[C@]3(O)C(=O)OC)CC(C2)[C@H]1c1ccccc1 (stereo not given in full) | 500 nM and 600 nM

— ChEMBL document CHEMBL1127954, “A new approach to synthesis of vinblastine analogs. Addition of organozinc reagents to the dihydropyridinium ion generated by fragmentative coupling to catharanthine and vindoline” (Bioorg Med Chem Lett, 1994)
